Like-named read-outs stand apart in the source and are kept apart here.
Columns and labels:
[1] = system: Pseudomonas aeruginosa ATCC 15442; assay: Broth microdilution MIC/MBC (CLSI M07-A8), P. aeruginosa; format: cell-based; settings: for MBC (minimum bactericidal concentration): P. aeruginosa ATCC 15442; for MIC (minimum inhibitory concentration): Mueller-Hinton broth, 20 h at 37 °C, triplicate (SD = 0)
Method: (§1) The antimicrobial susceptibility testing of synthesized complexes, free ligands, and references compounds (AgNO3 and AgSD) was performed against three Gram-negative strains: Eschericha coli ATCC 25922, Proteus hauseri ATCC 13315, and Pseudomanos aeruginosa ATCC 15442. The minimum inhibitory concentration (MIC) and minimum bactericidal concentration (MBC) were determined by a modified broth microdilution method according to the recommendation of Clinical and Laboratory Standards Institute (CLSI M07-A8). In the experiments the Mueller-Hinton broth was used, the final organism density was about 5 × 10^5 CFU/mL and the tests were performed 20 h at 37 °C. The studied compounds were dissolved in water (1, 3, 4, 6, and the ligands [except 2-CH2OHbim]) or in DMSO (2, 5, and 2-CH2OHbim), and the appropriate amounts were added to samples (to biotic controls was added pure solvent). The compounds were tested in concentration ranging from 0 mg/L to 100 mg/L, except free ligands which were tested up to 500 mg/L.

[2] = system: Proteus hauseri ATCC 13315; assay: Broth microdilution MIC/MBC (CLSI M07-A8), P. hauseri; format: cell-based; settings: for MBC (minimum bactericidal concentration): P. hauseri ATCC 13315; for MIC (minimum inhibitory concentration): P. hauseri, Mueller-Hinton broth, 20 h at 37 °C, triplicate (SD = 0)
Method: as §1

[3] = system: B16 (murine melanoma) cells; assay: MTT cytotoxicity assay, B16 cells; format: cell-based; settings: 72 h incubation, three independent experiments, read-out: IC50 (concentration causing 50% reduction of cellular viability)
Method: The B16 (murine melanoma) cells and C3H10T1/2 (mouse fibroblast) cells were seeded 7 × 10^3 (B16) and 3 × 10^4 (10T1/2) per well/24 well plate into a medium containing DMEM GlutaMAX (Thermo Fisher Scientific, Waltham, MA USA), 10% bovine serum (Lonza, San Diego, CA, USA) added, and Antibiotic Antimicotic Solution 1:100 (Sigma-Aldrich). The plates were stored in a humidified incubator at 37 °C, 5% CO2. After 24 h, the cells were treated with the following compounds: compounds 1–6, free ligands, AgNO3, and AgSD (except control cells—wells without tested compound). Silver complexes 1, 3, 4, 6, and AgNO3 were dissolved in water. Complexes 2, 5, and AgSD are DMSO-soluble. Next, all chemicals were diluted into water to make a concentration 1, 0.1, 0.01 mg/mL and as a working solution were added to the medium. After 72 h of incubation, the cells were washed and incubated with 0.25 mg/mL MTT (Sigma-Aldrich) solution and were incubated for another 3 h. Isopropanol was added to dissolve the formazan crystals. Absorbance at 540 and 690 nm was read using Epoch Software version 2.01.14 (Bio-Tek, Winooski, VT, USA).

[4] = system: P. aeruginosa ATCC 27853; set-up: method as in PMID 24218046; settings: cited from earlier work
[5] = system: Escherichia coli ATCC 25922; assay: Broth microdilution MIC/MBC (CLSI M07-A8), E. coli; format: cell-based; settings: for MBC (minimum bactericidal concentration): E. coli ATCC 25992; for MIC (minimum inhibitory concentration): Mueller-Hinton broth, 20 h at 37 °C, triplicate (SD = 0)
Method: as §1

[6] = system: E. coli ATCC 8739; set-up: method as in PMID 24218046; settings: cited from earlier work
[7] = system: three Gram-negative strains: Eschericha coli ATCC 25922, Proteus hauseri ATCC 13315, and Pseudomanos aeruginosa ATCC 15442; assay: Broth microdilution MIC of free ligands, strain not specified; format: cell-based; settings: free ligands tested up to 500 mg/L
Method: as §1

[8] = as above; format: cell-based; settings: Proteus hauseri, ATCC 13315 / ATCC 15442 / ATCC 25922; free ligands tested up to 500 mg/L
Method: as §1

[9] = system: Pseudomonas aeruginosa ATCC 15442; set-up: method as in PMID 25846722; settings: cited from earlier work
[10] = system: Proteus hauseri ATCC 13315; set-up: method as in PMID 25846722; settings: cited from earlier work
[11] = system: Escherichia coli ATCC 25922; set-up: method as in PMID 25846722; settings: cited from earlier work
[12] = system: B16 cells; set-up: method as in doi:10.1039/a702757e; settings: cited from earlier work

Molecule	MBC (minimum bactericidal concentration) [1] [µM]	MIC (minimum inhibitory concentration) ([1]; P. aeruginosa) [µM]	MBC (minimum bactericidal concentration) [2] [µM]	MIC (minimum inhibitory concentration) [2] [µM]	MBC (minimum bactericidal concentration) [5] [µM]	MIC (minimum inhibitory concentration) ([5]; E. coli) [µM]	further results
{[Ag(4-pmOpe)]NO3}n [Complex 1]	72	48	120	72	145	96	IC50 [3]: 13 µM; MIC [4]: 37.6 µM; MIC [6]: 37.6 µM
O=[N+]([O-])[O-].OCc1cccc(CO)n1.OCc1cccc(CO)n1.[Ag+] [Complex 3, [Ag(2,6-di(CH2OH)py)2]NO3]	67	45	112	67	67	67	–
CCOP(=O)(OCC)OCc1nc2ccccc2[nH]1.CCOP(=O)(OCC)OCc1nc2ccccc2[nH]1.O=[N+]([O-])O.[Ag] [Complex 2, [Ag(2-bimOpe)2]NO3]	27	14	41	27	54	27	MIC [4]: 5.3 µM; MIC [6]: 21.2 µM
CCOP(=O)(OCC)OCc1nc2ccccc2[nH]1 [Complex 2-bimOpe]	–	–	–	–	–	–	MIC values of the free ligands [7]: > 500 mg/L^−1
CCOP(=O)(OCC)OCc1ccncc1 [Complex 4-pmOpe]	–	–	–	–	–	–	MIC values of the free ligands [7]: > 500 mg/L^−1
O=[N+]([O-])[O-].OCc1ccncc1.OCc1ccncc1.[Ag+] [Complex 4, [Ag(4-CH2OHpy)2]NO3]	52	26	77	52	77	52	–
O=[N+]([O-])[O-].OCc1nc2ccccc2[nH]1.OCc1nc2ccccc2[nH]1.[Ag+] [Complex 5, [Ag(2-CH2OHbim)2]NO3]	21	21	43	21	21	21	growth-inhibiting concentration, fold lower than that of AgSD ([1]; P. aeruginosa, MIC relative to AgSD): 2.6 fold; growth-inhibiting concentration, fold lower than that of AgSD ([5]; E. coli, MIC relative to AgSD): 2.6 fold
OCc1cccc(CO)n1 [2,6-di(CH2OH)py, 2,6-di(hydroxymethyl)-pyridine]	–	–	–	–	–	–	MIC [8]: > 500 µg/mL
OCc1ccncc1 [Complex 4-CH2OHpy]	–	–	–	–	–	–	MIC [8]: > 500 µg/mL
O=[N+]([O-])[O-].[Ag+] [AgNO3, silver nitrate, reference compound]	59	59	177	118	177	118	IC50 [3]: 9.74 µM
Cc1ncc([N+](=O)[O-])n1CCO.Cc1ncc([N+](=O)[O-])n1CCO.O=[N+]([O-])[O-].[Ag+] [Complex 6, [Ag(MTZ)2NO3]]	–	–	–	–	–	–	MBC (minimum bactericidal concentration) ([9]; P. aeruginosa ATCC 15442): 117 µM; MIC (minimum inhibitory concentration) ([9]; P. aeruginosa): 59 µM; MBC (minimum bactericidal concentration) ([10]; P. hauseri ATCC 13315): 117 µM; MIC (minimum inhibitory concentration) ([10]; P. hauseri): 98 µM; MBC (minimum bactericidal concentration) ([11]; E. coli ATCC 25992): 98 µM; MIC (minimum inhibitory concentration) ([11]; E. coli): 98 µM
N.N.[Cl][Pt][Cl] [cis-DDP, cisplatin]	–	–	–	–	–	–	IC50 [3]: 7.87 µM; IC50 [12]: 900 nM

Reference: PMC6274122, “Antibacterial Activity and Cytotoxicity of Silver(I) Complexes of Pyridine and (Benz)Imidazole Derivatives. X-ray Crystal Structure of [Ag(2,6-di(CH2OH)py)2]NO3” (Molecules, 2016)
